Data taken from PMC7343616 (The FEBS journal, 2020).

How the values were obtained:
wild-type PR = details: read-out: Ki for PR, ref Park et al. 2016. Biochemistry [18]; cited from earlier work
PRS5B [1] = assay: FRET-based enzyme kinetic inhibition assay; assay type: biochemical, HIV-1; details: Ki for mutant/Ki for wild-type
PRS5B [2] = molecular target: PRS5B (Human immunodeficiency virus 1, UniProt P03367, A522V/A571V/C567A/C595A/E521D/E535N/G573T/I584V/L510I/L524M/M536I/N583D/Q507K/V511I, form not given); assay: FRET-based enzyme kinetic inhibition assay; assay type: biochemical, HIV-1; details: read-out: Ki for PRS5B; FRET substrate, 50 mM MES pH 5.6, 37°C; mean ± SD (n=3–5)
PR^S17 = details: Ki for mutant/Ki for wild-type; ref Park et al. 2016. Biochemistry [18]; cited from earlier work
isolate with PRS5B = details: ref Stanford HIV database; cited from earlier work

Compound	Ki (wild-type PR) [nM]	PRS5B Ki fold change (PRS5B [1])	Ki (PRS5B [2]) [nM]	PR^S17 Ki fold change (PR^S17)	resistance in PhenoSense assay (isolate with PRS5B)
CC(C)(C)NC(=O)[C@@H]1C[C@@H]2CCCC[C@@H]2CN1C[C@@H](O)[C@H](Cc1ccccc1)NC(=O)[C@H](CC(N)=O)NC(=O)c1ccc2ccccc2n1 [SQV, saquinavir]	0.39	–	–	–	–
Cc1cccc(C)c1OCC(=O)N[C@@H](Cc1ccccc1)[C@@H](O)C[C@H](Cc1ccccc1)NC(=O)[C@H](C(C)C)N1CCCNC1=O [LPV, lopinavir]	0.02	8,000 fold	160 ± 10	3,650 fold	significant resistance, although not the highest level
CCC[C@@]1(CCc2ccccc2)CC(O)=C([C@H](CC)c2cccc(NS(=O)(=O)c3ccc(C(F)(F)F)cn3)c2)C(=O)O1 [TPV, tipranavir]	–	–	8.6 ± 1.2	–	–
Cc1c(O)cccc1C(=O)N[C@@H](CSc1ccccc1)[C@H](O)CN1C[C@H]2CCCC[C@H]2C[C@H]1C(=O)NC(C)(C)C [NFV, nelfinavir]	0.36	–	–	–	–
CC(C)CN(C[C@@H](O)[C@H](Cc1ccccc1)NC(=O)O[C@H]1CO[C@H]2OCC[C@H]21)S(=O)(=O)c1ccc(N)cc1 [DRV, darunavir]	0.005	–	–	–	–
CC(C)(C)NC(=O)[C@@H]1CN(Cc2cccnc2)CCN1C[C@@H](O)C[C@@H](Cc1ccccc1)C(=O)N[C@H]1c2ccccc2C[C@H]1O [IDV, indinavir]	0.25	–	–	–	–
CC(C)CN(C[C@@H](O)[C@H](Cc1ccccc1)NC(=O)O[C@H]1CCOC1)S(=O)(=O)c1ccc(N)cc1 [APV, amprenavir]	0.2	–	–	–	–
COC(=O)N[C@H](C(=O)N[C@@H](Cc1ccccc1)[C@@H](O)CN(Cc1ccc(-c2ccccn2)cc1)NC(=O)[C@@H](NC(=O)OC)C(C)(C)C)C(C)(C)C [ATV, atazanavir]	0.035	–	8.4 ± 0.9	2,000 fold	–
